Assay results: ChEMBL document CHEMBL1908284, “Rational use of in vitro P-glycoprotein assays in drug discovery” (J Pharmacol Exp Ther, 2001)
Starred links: 1 amine or outer side, 2 acyl side, 3 side chain; linkers in the order of their positions; H or OH if unused. Positions of bridges follow the written chain, without caps; N, C: chain ends. Non-standard residues stand in square brackets, D forms with d. Residues, ends and D or L forms follow the SMILES beside them. Chains are numbered I, II in the order given. Actinocin(9to1) = Cc1c2oc3c(C)ccc(C(=O)[*:1])c3nc-2c(C(=O)[*:2])c(N)c1=O; NMeV = CN[C@H](C(=O)O)C(C)C; Sar = CNCC(=O)O

Columns and labels:
[1] = biological target: T1, ATP-dependent translocase ABCB1 (MDR1) (Homo sapiens, UniProt P08183); test: in vitro; settings: dog, MDCK-MDR1, Papp
Description: (§1) Apparent permeability (Papp) from apical to basolateral side determined in MDR1-MDCKII cells

[2] = biological target: T2, ATP-dependent translocase ABCB1 (Homo sapiens, UniProt P08183); settings: dog;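 for Ratio ATPase activity: Compound-stimulated ATPase activity measured in membrane preparations of MDR1-expressing Sf9 cells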
Description: (§2) Apparent permeability (Papp) from basolateral to apical side determined in MDR1-MDCKII cells

[3] = biological target: T2, ATP-dependent translocase ABCB1; settings: dog; remark: listed apart in the source
Description: as §1

[4] = biological target: T1, ATP-dependent translocase ABCB1 (MDR1); test: in vitro; settings: dog, MDCK-MDR1, Papp; remark: listed apart in the source
Description: as §2

[5] = biological target: T1, ATP-dependent translocase ABCB1 (MDR1); test: in vitro; settings: dog, MDCK-MDR1, Ratio_Papp
Description: Ratio of apparent permeability from basolateral to apical side over apical to basolateral side determined in MDR1-MDCKII cells

[6] = biological target: T2, ATP-dependent translocase ABCB1; settings: spodoptera frugiperda, sf9, 20 µM
Description: Drug-stimulated Pgp ATPase activity ratio determined in MDR1-Sf9 cell membranes with test compound at a concentration of 20uM

[7] = biological target: T2, ATP-dependent translocase ABCB1; test: TP_TRANSPORTER: ATP hydrolysis in MDR1-expressing Sf9 cells; type: functional

T1 sequence (P08183 whole entry): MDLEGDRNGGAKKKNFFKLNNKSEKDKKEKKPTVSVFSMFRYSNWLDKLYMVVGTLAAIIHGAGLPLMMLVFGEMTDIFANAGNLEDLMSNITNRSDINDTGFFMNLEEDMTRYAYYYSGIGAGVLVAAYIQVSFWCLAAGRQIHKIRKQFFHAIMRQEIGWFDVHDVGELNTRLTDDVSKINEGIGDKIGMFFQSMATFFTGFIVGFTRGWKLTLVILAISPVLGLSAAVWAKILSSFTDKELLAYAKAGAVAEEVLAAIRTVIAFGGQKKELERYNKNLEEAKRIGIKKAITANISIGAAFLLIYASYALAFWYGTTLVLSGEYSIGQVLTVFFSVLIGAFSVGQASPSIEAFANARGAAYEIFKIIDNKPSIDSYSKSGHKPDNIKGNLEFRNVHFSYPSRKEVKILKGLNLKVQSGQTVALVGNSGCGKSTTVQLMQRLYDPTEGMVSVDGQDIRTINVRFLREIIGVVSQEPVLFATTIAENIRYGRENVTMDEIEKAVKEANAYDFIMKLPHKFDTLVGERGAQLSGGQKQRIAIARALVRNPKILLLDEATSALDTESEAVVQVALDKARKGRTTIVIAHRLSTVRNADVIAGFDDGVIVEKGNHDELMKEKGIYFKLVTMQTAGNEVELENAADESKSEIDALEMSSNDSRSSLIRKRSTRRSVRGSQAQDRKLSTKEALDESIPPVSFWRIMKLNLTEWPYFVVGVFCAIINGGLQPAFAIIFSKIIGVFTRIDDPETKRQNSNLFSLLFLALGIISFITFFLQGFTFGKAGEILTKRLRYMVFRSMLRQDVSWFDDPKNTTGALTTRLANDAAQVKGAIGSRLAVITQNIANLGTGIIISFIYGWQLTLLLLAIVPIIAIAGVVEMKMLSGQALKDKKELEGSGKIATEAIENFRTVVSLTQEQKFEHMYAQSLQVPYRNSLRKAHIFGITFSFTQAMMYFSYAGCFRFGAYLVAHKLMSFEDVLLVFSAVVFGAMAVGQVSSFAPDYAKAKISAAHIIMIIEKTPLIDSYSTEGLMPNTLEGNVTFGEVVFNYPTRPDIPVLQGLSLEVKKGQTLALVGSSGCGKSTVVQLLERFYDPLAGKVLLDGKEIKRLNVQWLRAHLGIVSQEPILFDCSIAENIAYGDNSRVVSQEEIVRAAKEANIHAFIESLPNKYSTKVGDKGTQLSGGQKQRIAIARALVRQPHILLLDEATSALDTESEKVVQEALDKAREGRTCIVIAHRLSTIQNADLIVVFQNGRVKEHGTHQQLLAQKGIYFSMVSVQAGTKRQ
T2 sequence (P08183 whole entry): as above

Row | Compound | Papp A→B [1] [×10⁻⁶ cm/s] | Papp ([2]; mdr1-mdckii) [×10⁻⁶ cm/s] | Papp ([3]; mdr1-mdckii) [×10⁻⁶ cm/s] | Papp B→A [4] [×10⁻⁶ cm/s] | Papp ([2]; MDCK-MDR1) [×10⁻⁶ cm/s] | efflux ratio [5] | Papp ([3]; MDCK-MDR1) [×10⁻⁶ cm/s] | Ratio_ATPase activity [6] | Activity [7]
1 | CC(C)NCC(O)COc1cccc2ccccc12 (stereo unspecified) [PROPRANOLOL] | 49.6 | – | – | 51.4 | 51.4 | 1.04 | 49.6 | 1.33 | –
2 | OC[C@@H](O)[C@@H](O)[C@H](O)[C@H](O)CO [MANNITOL] | 1.13 | 0.915 | 1.13 | 0.915 | – | 0.82 | – | 1.25 | –
3 | CCC1=C[C@@H]2CN(C1)Cc1c([nH]c3ccccc13)[C@@](C(=O)OC)(c1cc3c(cc1OC)N(C)[C@H]1[C@@](O)(C(=O)OC)[C@H](OC(C)=O)[C@]4(CC)C=CCN5CC[C@]31[C@@H]54)C2 [VINORELBINE] | 0.252 | – | – | 17.6 | – | 69.8 | – | 1.15 | is not a substrate [-]
4 | Cc1c2oc3c(C)ccc(C(=O)N[C@@H]4C(=O)N[C@H](C(C)C)C(=O)N5CCC[C@H]5C(=O)N(C)CC(=O)N(C)[C@@H](C(C)C)C(=O)O[C@@H]4C)c3nc-2c(C(=O)N[C@@H]2C(=O)N[C@H](C(C)C)C(=O)N3CCC[C@H]3C(=O)N(C)CC(=O)N(C)[C@@H](C(C)C)C(=O)O[C@@H]2C)c(N)c1=O [DACTINOMYCIN] (I: T[dV]P[Sar][NMeV] / II: T[dV]P[Sar][NMeV]; ester I:1-I:C, II:1-II:C; linker I:N-II:N via Actinocin(9to1)) | < 0.021 | – | – | 1.6 | – | > 80 | – | 1.2 | is not a substrate [-]

Results, then the compound that gave them:

Row | Papp A→B [1] [×10⁻⁶ cm/s] | Papp ([2]; mdr1-mdckii) [×10⁻⁶ cm/s] | Papp ([3]; mdr1-mdckii) [×10⁻⁶ cm/s] | Papp B→A [4] [×10⁻⁶ cm/s] | Papp ([2]; MDCK-MDR1) [×10⁻⁶ cm/s] | efflux ratio [5] | Papp ([3]; MDCK-MDR1) [×10⁻⁶ cm/s] | Ratio_ATPase activity [6] | Activity [7] | Compound
5 | 3.73 | 70.3 | 2.17 | 98.7 | – | – | – | – | – | CC(C)CN(C[C@@H](O)[C@H](Cc1ccccc1)NC(=O)O[C@H]1CCOC1)S(=O)(=O)c1ccc(N)cc1
6 | 7.39 | – | – | 26.7 | – | 3.61 | – | 3.61 | substrate [+] | COc1cc(Cc2cnc(N)nc2N)cc(OC)c1OC [TRIMETHOPRIM]
7 | 61.4 | – | – | 66.1 | – | 1.08 | – | 5.39 | substrate [+] | COC(=O)C1=C(C)NC(C)=C(C(=O)OCCN(C)Cc2ccccc2)C1c1cccc([N+](=O)[O-])c1 (stereo unspecified) [NICARDIPINE]
